# Measured values reported in patent EP0468497B1, “Peptide-antagonists of bombesin/GRP” (MERRELL PHARMACEUTICALS INC., priority 1990, dated 1992).
# Non-standard residues stand in square brackets, D forms with d. Residues, ends and D or L forms follow the SMILES beside them. *: point of attachment. Palmitoyl = CCCCCCCCCCCCCCCC(=O)*; Lauroyl = CCCCCCCCCCCC(=O)*; Octanoyl = CCCCCCCC(=O)*
# Molecular target: T1, bombesin receptor (Mus musculus, UniProt P21729)
# T1 construct: The pancreata from one or more mice were pooled, minced, and homogenized; from tissue; host or cells: mouse pancreas
# Assay: Affinity for the bombesin receptor by competition at the receptor for iodinated GRP (125I-GRP), pancreas membranes
# Set-up: species or system mice
# Conditions: competition with 125I-GRP, 90 minutes at room temperature, read-out: Bombesin Receptor Binding (Example 5)
# Description: The pancreata from one or more mice were pooled, minced, and homogenized in 50 mM HEPES (pH 7.4) containing 120 mM NaCl and 5 mM KCl at 4°C and centrifuged at 37,500 X g for 15 minutes. The pellet was resuspended in 50 mM HEPES (pH 7.4) containing 10 mM EDTA and 300 mM KCl and incubated for 30 minutes at 4°C. The suspension was centrifuged as above and the pellet was washed two times in 50 mM HEPES (pH 7.4) containing protease inhibitors (10 µM phenylmethylsulfonyl fluoride, 1 µM thiorphan, 40 µg/ml bacitracin, 10mM iodoacetic acid and 4 µg/ml leupeptin), and again centrifuged. The tissue was then resuspended in incubation buffer (1ml per 4 mg pancreas) and incubated for 15 minutes at room temperature, then 250 µl was added to each assay tube to commence the assay. The assay tubes contained incubation buffer consisting of 50 mM HEPES (pH 7.4), 0.5% BSA, protease inhibitors, 2 mM MnCl2, 1 µM somatostatin, and concentrations of ^125I-GRP and peptides as needed in a final volume of 500 µl. The assay was allowed to proceed to equilibrium for 90 minutes at room temperature. After this time, the contents of each tube was rapidly filtered over Whatman GF/B filters presoaked in 0.1% polyethyleneimine and the filters were rapidly washed three times with ice-cold 50 mM HEPES (pH 7.4). Filter-bound radioactivity was quantitated in a gamma counter. Competition of iodinated GRP binding by test compounds or standards was expressed as a percentage of ^125I-GRP binding in the absence of peptide. Affinity and maximal binding were calculated with Ligand (Biosoft, Cambridge, UK).
# T1 sequence (P21729 whole entry): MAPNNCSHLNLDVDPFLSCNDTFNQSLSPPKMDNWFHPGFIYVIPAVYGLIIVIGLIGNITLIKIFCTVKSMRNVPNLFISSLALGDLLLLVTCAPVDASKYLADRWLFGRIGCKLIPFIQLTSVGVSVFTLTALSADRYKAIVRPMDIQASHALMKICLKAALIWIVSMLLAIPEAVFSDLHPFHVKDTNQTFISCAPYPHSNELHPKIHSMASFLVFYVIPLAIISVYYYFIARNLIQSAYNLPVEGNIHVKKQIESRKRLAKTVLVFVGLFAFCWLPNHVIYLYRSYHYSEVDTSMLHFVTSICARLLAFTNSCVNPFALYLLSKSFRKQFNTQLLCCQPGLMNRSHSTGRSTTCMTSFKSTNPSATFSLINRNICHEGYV
row,Kd,SMILES
1,≤ 500 nM,"CCCCCCCCCCCCCCCC(=O)N[C@@H](CCC(N)=O)C(=O)N[C@@H](Cc1c[nH]c2ccccc12)C(=O)N[C@@H](C)C(=O)N[C@H](C(=O)N[C@H](C)C(=O)N[C@@H](Cc1c[nH]cn1)C(=O)N[C@@H](CC(C)C)C(N)=O)C(C)C [Example 3, N-(Palmitoyl)-Gln-Trp-Ala-Val-ala-His-Leu-NH2] (Palmitoyl-QWAV[dA]HL-NH2)"
2,≤ 500 nM,"CCCCCCCCCCCC(=O)N[C@@H](CCC(N)=O)C(=O)N[C@@H](Cc1c[nH]c2ccccc12)C(=O)N[C@@H](C)C(=O)N[C@H](C(=O)N[C@H](C)C(=O)N[C@@H](Cc1c[nH]cn1)C(=O)N[C@@H](CC(C)C)C(N)=O)C(C)C [Example 2, N-(Lauroyl)-Gln-Trp-Ala-Val-ala-His-Leu-NH2] (Lauroyl-QWAV[dA]HL-NH2)"
3,≤ 50 nM,"CCCCCCCC(=O)N[C@@H](CCC(N)=O)C(=O)N[C@@H](Cc1c[nH]c2ccccc12)C(=O)N[C@@H](C)C(=O)N[C@H](C(=O)N[C@H](C)C(=O)N[C@@H](Cc1c[nH]cn1)C(N)=O)C(C)C [Example 4, N-(n-Octanoyl)-Gln-Trp-Ala-Val-ala-His-NH2] (Octanoyl-QWAV[dA]H-NH2)"
4,≤ 50 nM,"CCCCCCCC(=O)N[C@@H](CCC(N)=O)C(=O)N[C@@H](Cc1c[nH]c2ccccc12)C(=O)N[C@@H](C)C(=O)N[C@H](C(=O)N[C@H](C)C(=O)N[C@@H](Cc1c[nH]cn1)C(=O)N[C@@H](CC(C)C)C(N)=O)C(C)C [Example 1, N-(n-Octanoyl)-Gln-Trp-Ala-Val-ala-His-Leu-NH2] (Octanoyl-QWAV[dA]HL-NH2)"
